Results reported in patent US10006912B2, “Peptides for diagnosing lyme disease” (B[…]., priority 2013, dated 2018).

Legend:
[1] = test system: IgM in sera containing antibodies against B. burgdorferi proteins; assay: Epitope mapping of DbpB overlapping peptide library, IgM binding; parameters: species or system human; settings: 8 high titer Lyme disease patient sera; 20-AA library peptides of DbpB, B. burgdorferi B31
Procedure: (§1) Epitope mapping of full-length DbpB was performed by ArrayIt, Corp. (Sunnyvale, Calif.). Briefly, an overlapping peptide library consisting of 20-AA long peptides overlapping by 15-AA (offset by 5-AA) was generated using the sequence for DbpB from B. burgdorferi B31 (Accession #AAC66244). The sequence submitted for mapping lacked the first 8 AA. The library was exposed to 8 sera containing antibodies against B. burgdorferi proteins, as determined by commercial Lyme immunostrips (Viramed Biotech AG, Planegg, Germany). IgM and IgG binding were independently evaluated, and data were reported in terms of fluorescent binding intensity. Peptides generated from epitope mapping data were produced by Lifetein, Inc (South Plainfield, N.J.). […]
(§2) Linear epitope mapping of DbpB was accomplished by probing overlapping peptide libraries containing full length sequences derived from the B31 strain of B. burgdorferi sensu stricto, with serum obtained from 8 Lyme disease patients with high levels of anti-Borrelia antibody as determined using commercially available Lyme disease immunoblot strips. […]

[2] = test system: IgG in sera containing antibodies against B. burgdorferi proteins; assay: Epitope mapping of DbpB overlapping peptide library, IgG binding; parameters: species or system human; settings: 8 high titer Lyme disease patient sera; 20-AA library peptides of DbpB, B. burgdorferi B31
Procedure: as §1, §2

Row | Substance | samples in which the peptide was bound by IgM [1] | samples in which the peptide was bound by IgG [2]
1 | DbpB(38-57): 20-AA library peptide of DbpB from B. burgdorferi B31; one of two overlapping peptides forming DbpB(38-67) (KDLKNKILKIKKEATGKGVL) | 100% | 
2 | DbpB(48-67): 20-AA library peptide of DbpB from B. burgdorferi B31; one of two overlapping peptides forming DbpB(38-67) (KKEATGKGVLFEAFTGLKTG) |  | 100%
